# Like-named read-outs stand apart in the source and are kept apart here. Strand notation (5' to 3'): a small letter for the sugar, then the base; units joined by * are phosphorothioate-linked, units joined directly phosphodiester-linked; [ ] holds rarer units or linkages, { } end groups; capitals alone tell only the bases. m = 2'-O-methyl
# Key:
# full-length hTR = assay: Fluorescence polarization binding to full-length hTR; design: species or system human; settings: for affinity for full-length hTR (in words): FP; for Kd: full-length hTR construct, SEQ ID NO: 1 variants, read-out: Kp from FP
# Excerpt: To assess and quantify the ability of the RIPtide hits from microarray screening to bind the target RNA in solution, a panel of RIPtides representing variations on the consensus sequences of top hits within each cluster was selected. These RIPtides were synthesized with a 3-carboxyfluorescein (FAM) label attached to the 3′-end, the same as had been attached to the surface of the microarray. Fluorescence polarization (FP) was then used to measure quantitatively the equilibrium dissociation constant (Kd) values of the FAM-labeled RIPtides, using the same folded target RNAs and buffer system as had been employed in the microarray screen.
# It is possible, without wishing to be limited by a theory, that RIPtide binding sites present or available in truncated forms of hTR may not be present or available in full-length hTR. Five RIPtides were therefore selected that had been validated for binding PKWT-1 in solution, and their binding affinity to full-length hTR was measured using FP. […] Were the J2b/3 loop involved in tertiary interactions in hTR, RIPtide binding might have been lost, and therefore it was surmised that the loop remains relatively unengaged in such interactions when present in naked hTR.
# The remainder of the RIPtide hits from primary microarray screens of PK123 and PK159 in solution were not validated, but instead validation using full-length hTR was analyzed. Representative examples from each of the clusters were selected (FIG. 4D) and the binding affinity of these RIPtides for full-length hTR was quantified (FIG. 6A). In this way, RIPtides from clusters III, IV and V that bind full-length hTR were identified. Taken together, the collection of hTR-validated RIPtides maps out a series of sites on the template/pseudoknot that are especially conducive to targeting by a 2′-O-methyl polyribonucleotide; with each site corresponding to a cluster of sequence-complementary RIPtides (FIG. 6B, shaded according to sequence in FIG. 6A). Specifically, these hyper-targetable regions are the J2b/3 loop and P3 stem (Cluster II), the J2a/2b bulge through part of the P2a stem (Cluster III), the J2a/3 loop (Cluster IV), and the Template region (Cluster V).
# FAM (6-carboxyfluorescein)-labeled oligonucleotides were synthesized on a 3′-(6-Fluorescein) CPG support (Glen Research) using a MerMade 12 (BioAutomation) DNA synthesizer, purified with Poly Pak-II (Glen Research) cartridges, and compositionally verified by MALDI-TOF MS. Unlabeled full length hTR was prepared by in vitro transcription in the presence of T7 RNA polymerase under the conditions described earlier for RIPtide screening, but without aminoallyl-UTP addition. After DNase I treatment and ethanol precipitation, hTR was purified using the RNeasy Midi kit (Qiagen). Unlabeled PKWT and PKWT-1 were purchased from Dharmacon, and were PAGE-purified and desalted. FAM-labeled RIPtides (5 nM) were titrated with increasing concentrations of folded RNA (300 pM-3 μM, typically). Solutions containing RIPtide and RNA were incubated at 37° C. for 2 h, after which fluorescence polarization was recorded at room temperature using a SpectraMax M5 (Molecular Devices) plate reader. Polarization (expressed in millipolarization units) was monitored at […] (cutoff 515 nm). […] Dissociation constants were determined using Kaleidagraph 3.5 (Synergy Software). […]
# [1] = tested on: telomerase ribonucleoprotein complex; assay: TRAP assay in cell extracts (HeLa, DU145, HEK293); assay type: biochemical, human; settings: for IC50 in TRAP (in words): cell extracts (HeLa, DU145, HEK293)
# Excerpt: Having discovered a panel of RIPtides that bind four different regions on the naked RNA component of telomerase, it was next determined whether these molecules were capable of inhibiting the activity of the telomerase ribonucleoprotein complex in an in vitro setting. The Telomeric Repeat Amplification Protocol (TRAP) assay (Kim, N. W. et al., Science 266, 2011-2015 (1994)) was therefore employed. The TRAP assay is a PCR-based protocol that has found widespread use in determining telomerase activity in human cell extracts and also in evaluating the in vitro potency of telomerase inhibitors. Using a version of the TRAP assay (Cy5-TRAP) that utilizes fluorescence detection (Herbert, B.-S. et al., Nat. Protocols 1, 1583-1590 (2006)). IC50 values for several RIPtides were determined using cell extracts from two human tumor cell lines (HeLa and DU145) and an immortalized embryonic cell line (HEK293). Initially, a small library of RIPtides representing several clusters identified in the microarray screen was screened and validated by FP experiments on hTR, using telomerase activity present in HeLa cell extracts. The majority of these were 8-mers, but some 7-mers and 6-mers were also tested; all were fully complementary to the target hTR sequence with Kd's for hTR below 300 nM. Several phosphorothioate variations of the initial library were additionally tested, incorporating phosphorothioate linkages either at the two terminal positions of the RIPtide or at every position.
# Inhibition of telomerase activity in vitro was determined using TRAP, a PCR-based assay for telomerase activity in cell extracts (B.-S. Herbert, Nat. Protocols, 1, 1583-1590 (2006)). Unlabeled oligonucleotide sequences found to bind by FP were pre-incubated with cell extracts (HeLa, DU 145, and 293), and activity was measured by TRAP.
# RIPtides were synthesized, purified with PolyPak-II C18 reverse phase cartridges, and constitutionally verified by MALDI-TOF MS. Telomerase-positive cells were either purchased from ATCC (DU145 and HEK293) or provided in the Chemicon TRAP kit (HeLa). Cell extracts were prepared from cell pellets by detergent lysis with 1×CHAPS lysis buffer (Chemicon). RIPtides were incubated with cell extract for 1 h at 37° C. prior to the TRAP assays. Assays were performed following a protocol that uses fluorescence as a quantitation system, as previously described by Herbert et al. (Nat. Protocols 1, 1583-1590 (2006)). Briefly, extension of a fluorescent artificial substrate by telomerase was carried out for 30 minutes at 30° C., followed by amplification with 30 PCR cycles ([…] 30 s, 59° C. 30 s, 72° C. 1 min). Telomerase extension products were separated on 10% native PAGE gels, and bands were visualized by fluorescence imaging and quantified using ImageQuant™ (GE Healthcare). Concentrations of RIPtides ranged from 0.6 nM to 60 μM, and for the initial screening, experiments were performed in duplicate using HeLa cell extracts. For active RIPtides, experiments were repeated using DU145 (prostate cancer) and HEK293 cell extracts. Several controls were included in the design of the experiments: a positive control (untreated cell lysate), negative controls (buffer only, heat inactivated and RNase treated cell extracts), and PCR amplification control (60 μM of RIPtide added after telomerase elongation and before PCR step). For cell-based TRAP assays, DU145 cells were transfected with 0.2% Lipofectamine™ 2000 (Invitrogen) and 165 nM RIPtide for a period of 24 h. Cells were harvested, counted, lysed with 1×CHAPS lysis buffer and normalized by total protein concentration as determined by the Bradford assay. Assays were performed in triplicate as described above.
# The inhibitory potential of the RIPtides was initially assessed in HeLa cell extracts, in duplicate experiments, using a 600 pM-60 μM concentration range. Experiments with selected RIPtides were repeated for a concentration range of 0.6 pM-60 μM. […]
# [2] = tested on: telomerase activity in DU145 cells; assay: Cell-based TRAP assay in transfected DU145 cells; design: species or system human; settings: 165 nM RIPtide, 24 h, Lipofectamine 2000, then TRAP
# Protocol: Having established that the modified RIPtides retain activity in vitro, several of these were tested in cell-based assays. DU145 prostate cancer cells were treated with 165 nM RIPtide for 24 h. The cells were subsequently lysed and telomerase activity was assessed by the TRAP assay (FIG. 8D). As a positive control, a previously reported 13-mer 2′-O-methyl oligonucleotide targeting the template region of hTR was employed (Pitts, A. E., Corey, D. R., Proc. Natl. Acad. Sci. USA 95, 11549-111554 (1998)). Lipofectamine™ was used to ensure optimal delivery, and it remains to be established whether cationic lipid delivery is necessary for 10-mers. In particular, there is evidence that relatively short oligonucleotides containing phosphorothioate linkages targeting telomerase show optimal cellular uptake properties (Chen, Z., et al., J. Med. Chem. 45, 5423-5425 (2002)).
# RIPtides were synthesized, purified with PolyPak-II C18 reverse phase cartridges, and constitutionally verified by MALDI-TOF MS. Telomerase-positive cells were either purchased from ATCC (DU145 and HEK293) or provided in the Chemicon TRAP kit (HeLa). Cell extracts were prepared from cell pellets by detergent lysis with 1×CHAPS lysis buffer (Chemicon). RIPtides were incubated with cell extract for 1 h at 37° C. prior to the TRAP assays. Assays were performed following a protocol that uses fluorescence as a quantitation system, as previously described by Herbert et al. (Nat. Protocols 1, 1583-1590 (2006)). Briefly, extension of a fluorescent artificial substrate by telomerase was carried out for 30 minutes at 30° C., followed by amplification with 30 PCR cycles ([…] 30 s, 59° C. 30 s, 72° C. 1 min). Telomerase extension products were separated on 10% native PAGE gels, and bands were visualized by fluorescence imaging and quantified using ImageQuant™ (GE Healthcare). […] Cells were harvested, counted, lysed with 1×CHAPS lysis buffer and normalized by total protein concentration as determined by the Bradford assay. […]
# mutated full length hTR = assay: Fluorescence polarization compensatory mutation study with mutated full-length hTR; assay type: binding, human; settings: mutant RIPtide and mutant hTR
# Excerpt: Without wishing to be limited or constrained by theory, the RIPtide binding sites on hTR had been inferred assuming Watson-Crick complementarity between the RIPtide and target. To verify experimentally that the RIPtides were actually recognizing the predicted regions on hTR, tandem point mutations were introduced into the central portion of the RIPtides and compensatory sequence changes into hTR. The binding behavior of the “wild type” and “mutant” RIPtides to wild-type and compensatory mutant hTR targets was analyzed by FP (FIG. 7). Four different hTR transcripts were generated in which two consecutive nucleotides at the central position of each cluster, the expected target site (FIG. 6A, bases indicated in bold), were mutated to their Watson-Crick complementary bases (G→C, C→G and U→A). […] Similarly, binding was abolished or reduced when mutated RIPtides were incubated with wild-type hTR (FIG. 7C). […] Perhaps this lack of restoration in certain cases reflects a local change in the availability or in the folding energy of the single-stranded elements as a result of the mutation. Taken together, this mutational specificity supports the notion, without wishing to be bound by theory, that the RIPtides indeed target telomerase at the corresponding sequence-complementary sites.
# For mapping of hTR-RIPtide binding sites, site-directed mutagenesis on the pRc/CMV plasmid (Collins lab, UC Berkeley) was performed using a QuickChange-XL mutagenesis kit (Stratagene) and confirmed by sequencing. Full-length hTR transcripts incorporating two consecutive base mutations (to their Watson-Crick complementary bases) were generated for fluorescence polarization studies.
# [3] = cell extracts (HeLa, DU 145, and 293), SEQ ID NO: 1 variants, read-out: IC50 from TRAP
substance,measurement,setting,value
5′-GCCUCCAG-3′ (chemistry not given here) [SEQ ID NO: 1],affinity for full-length hTR (in words),full-length hTR,confirmed
same,telomerase inhibition in TRAP assays (in words),[1]; cell extracts,showing inhibition of activity
same,IC50 in TRAP (in words),[1],micromolar range
"5′-GGUGGAAGGC-3′ (2'-O-methyl sugars, as printed in the source, key not given here) [IV-3]",telomerase inhibition in cultured cells,[2],no significant telomerase inhibition
same,IC50 in TRAP (in words),[1],low nanomolar range
"AGUUAGG (all 2'-O-methyl, backbone not given here) [V-3]",restoration of binding with compensatory mutations in both RIPtide and hTR,mutated full length hTR,restoration was observed
"CAGCGAGA (all 2'-O-methyl, backbone not given here) [II-1]",restoration of binding with compensatory mutations in both RIPtide and hTR,mutated full length hTR,Restoration was not observed
G*C*C*U*C*C*A*G (mG*mC*mC*mU*mC*mC*mA*mG) [G*C*C*U*C*C*A*G LNA],IC50,[1]; [3],~6000 nM
G*CCUCCA*G (mG*mCmCmUmCmCmA*mG; further chemistry not given here),Kd,full-length hTR,37.3 ± 15.2 nM
G*CCUCCAG (mG*mCmCmUmCmCmAmG),Kd,full-length hTR,8.8 ± 2.5 nM
same,IC50,[1]; [3],~9000 nM
GCCUCCA*G (mGmCmCmUmCmCmA*mG),Kd,full-length hTR,8.9 ± 5.6 nM
same,IC50,[1]; [3],~16000 nM
"GGUGCCAGGC (all 2'-O-methyl, backbone not given here; further chemistry not fully specified) [IV-3 mismatch, reference compound]",telomerase inhibition in cultured cells,[2],abolished inhibition
"GGUGGAAGGC (as printed in the source, key not given here)",IC50,"[1]; cell extracts, in vitro, read-out: IC50, telomerase inhibition in TRAP",~1 nM
"GGUGGAAGGC (as printed in the source, key not given here) [IV-4]",IC50 in TRAP (in words),[1],low nanomolar range
"GGUGGAAGGC (as printed in the source, key not given here) [IV-5]",telomerase inhibition in cultured cells,[2],marked inhibition
"GUCAGCGA (all 2'-O-methyl, backbone not given here) [II-2]",restoration of binding with compensatory mutations in both RIPtide and hTR,mutated full length hTR,restoration was observed
same,affinity for full-length hTR (in words),full-length hTR,improvement in affinity

# From patent US20110257251A1, “TELOMERASE INHIBITORS AND METHODS OF USE THEREOF” (PRESIDENTS AND FELLOWS OF HARVARD COLLEGE, priority 2008, published 2011)
